Residues, ends and D or L forms follow the SMILES beside them.
How the values were obtained:
[1] = Metal ion selectivity and relative affinities by CD analysis; format: binding; details: CD analysis; peptide SEQ ID NO:11 at pH 6.0
From the text: Metal ion selectivity is an expected consequence of site specific metal-ligand interaction. The extent of helical induction, to a first approximation, depends on the affinity of metal ion toward the ligands employed, and on the compatibility of metal ion geometry and coordination sphere with the alpha-helical conformation. Thus, although numerous metal ions can induce and stabilize alpha-helix formation, the metal ion having the greatest relative affinity for the ligands employed is preferred and can readily be determined. […]
Peptides, prepared as in Example 1, and admixed with various metal salt solutions as described in Example 2B, were subjected to CD analysis to characterize metal ion selectivity with respect to the position of the metal binding site in the alpha-helical sequence.

[2] = Circular dichroism (CD) to measure degree of secondary structure (alpha-helicity); format: physicochemical
Description: ID No's. 3 and 4. The analysis was performed as described above.
Proton nuclear magnetic resonance spectra were recorded at 300MHz on Bruker AM300 spectrometer and are reported in parts per million (ppm) downfield from Me4 Si. Ultraviolet-visible spectra were recorded on Aviv Associates 14DS and Milton Roy Spectronic 3000 Array spectrometers. Circular dichroism measurements were made on Aviv Associates 62DS spectrometer equipped with a thermostable cell holder using 10, 1, and 0.1 mm Hellma quartz cells. All reported CD data have an uncertainty of ±2-5%. All ellipticity measurements are expressed as mean residue ellipticity, [θ], having the units deg·cm^2 ·dmol-^1.

[3] = CD titration: dependence of [θ]222 on free metal ion concentration, CuCl2; format: binding; details: CuCl2, pH 5.3; peptide 6.1×10^-5 M in 5 mM sodium borate, 21° C.
From the text: (§1) FIG. 4 illustrates the dependence of mean residue molar ellipticity at 222 nm ([.THETA.]222 ×10^-3) of peptides SEQ ID NO's:2 AND 3 on the concentration of free metal ions when measured as described in Example 3A(2).
(§2) The peptide metal salt solution admixtures prepared as in Example 2A were subjected to CD analyses according to published procedures to measure the degree of stability induced by metal ion complexation with peptides. Greenfield et al., Biochem, 8:4108 (1969) and Johnson, Ann. Rev. Biophvs. Chem., 17:145 (1988). All CD data reported herein have an uncertainty of ±2 to 5% for a 100% helix, [θ]222 =-35,000, and are based on several CD measurements of both peptides SEQ ID NO's:2 and 3 in the presence and absence of metal ions in various TFE/H20 mixtures at -10° to 20° C.
(§3) Both Cu(II) and Zn(II) bound peptide SEQ ID NO:3 with similar affinities and increased the helical content to the same extent.

[4] = CD titration: dependence of [θ]222 on free metal ion concentration, CdCl2; format: binding; details: CdCl2, pH 7.5; peptide 6.1×10^-5 M in 5 mM sodium borate, 21° C.
From the text: as §1, §2, §3

[5] = CD titration: dependence of [θ]222 on free metal ion concentration, NiCl2; format: binding; details: NiCl2, pH 6.3; peptide 6.1×10^-5 M in 5 mM sodium borate, 21° C.
From the text: as §1, §2, §3

[6] = Heat denaturation assay to measure melting temperatures; format: physicochemical
Description: In order to assess differences in helix stability between the metal ion complexed and uncomplexed forms of peptides Seq. ID No's. 3 and 4, the conformational stability of each peptide in the presence and absence of transition metal ions was determined from heat denaturation studies according to published procedures. Pace et al., In Protein structure, p. 311., IRL Press, (1989). The analysis of the thermal denaturation curves afforded linear ΔG vs. T and van't Hoff plots. […] Complexed peptides Seq. ID No's.
Because tris-bipyridyl-metal ion coordination complexes are chiral and can form either a left-handed or a right-handed helix, two diastereomeric tri-helical structures can possibly be formed. The stereogenic environment of the ensuing parallel tri-helical topology as well as the geometrical constraints imposed by the overall C3 symmetry of the coordination complex was expected, however, to enforce a high degree of diastereoselectivity in the assembly process. The CD spectrum (in the region of 280 and 330 nm) of the peptide in the presence of Ni(II) indicated the formation of one diastereomer having a left-handed helical configuration. Such a behavior is also consistent with the expected left handed supercoil of the tri-helical metallopolypeptide. The analysis of the thermal denaturation curves for the metallopolypeptide in the presence of Ni(II) yielded linear ΔG vs T and van't Hoff plots.

[7] = CD titration: dependence of [θ]222 on free metal ion concentration, ZnCl2; format: binding
From the text: as §1, §2, §3

[8] = Absorption spectroscopy pH profile of Ru(III)-peptide complexes; format: physicochemical; details: from absorption data vs pH
From the text: The Ru(III)-peptide SEQ ID NO:3 complex prepared as in Example 2B was subjected to absorption spectroscopy to further confirm the formation of a metallopeptide complex.
The pronounced shift in absorption maxima with increasing pH value is consistent with the behavior of the Ru(III) ions containing coordinated imidazoles and is attributed to N-H deprotonation at the "pyrrole nitrogen", Sunberg et al., J. Am. Chem. Soc., 96:381 (1974). […] The spectral similarity with the simple ruthenium(III)imidazole complexes and the characteristically facile metal-ion promoted imidazole NH ionization provide further support for the formation of the metallopeptide complex.

[9] = in the presence of Cu(II) ions (CuSO4, solution 13) at 0° C.

Compound	metal ions bound, order of affinity [1]	dependence of helicity on added NaF ([2]; NaF up to 250 mM, 5 mM sodium borate)	alpha-helicity [2, 9]	θ222 [2, 9]	dependence of CD spectra on peptide concentration ([2]; presence and absence of metal ions, 0.5-70 μM)	alpha-helicity ([2]; room temperature in water)	θ222 ([2]; room temperature in water)	Kd [3]	Kd [4]	Kd [5]	melting temperature (Tm) [6]	effect of Zn(II) on helical content ([7]; CD analysis, ZnCl2)	Kd ([7]; ZnCl2, pH 7.5, peptide 6.1×10^-5 M in 5 mM sodium borate, 21° C.)	pKa of the imidazole NH of the coordinated histidine [8]
CC(=O)N[C@@H](C)C(=O)N[C@@H](CCC(=O)O)C(=O)N[C@@H](C)C(=O)N[C@@H](C)C(=O)N[C@@H](C)C(=O)N[C@@H](CCCCN)C(=O)N[C@@H](CCC(=O)O)C(=O)N[C@@H](C)C(=O)N[C@@H](C)C(=O)N[C@@H](C)C(=O)N[C@@H](CCCCN)C(=O)N[C@@H](Cc1c[nH]cn1)C(=O)N[C@@H](C)C(=O)N[C@@H](C)C(=O)N[C@@H](C)C(=O)N[C@@H](Cc1c[nH]cn1)C(=O)N[C@@H](C)C(N)=O [peptide SEQ ID NO:3, Ac--Ala--Glu--Ala--Ala--Ala--Lys--Glu--Ala--Ala--Ala--Lys--His--Ala--Ala--Ala--His--Ala--CONH2] (Ac-AEAAAKEAAAKHAAAHA-NH2)	Ni(II), Cd(II), Cu(II) and Zn(II) in descending order of affinity	independent of concentration of added NaF up to 250 mM	about 90%	-31,100	independent of the peptide concentration	45%	-16,600	66 µM	220 µM	210 µM	11 °C	considerable helical induction	75 µM	
Ru(III)-peptide SEQ ID NO:4 complex: exchange-inert macrocyclic cis-[Ru(NH3)4 (L)2 ]^3+ complex of peptide SEQ ID NO:4 through two His residues at i and i+4 (AEAAAKHAAAHEAAAKA; Ru(III) tetraammine macrocyclic complex via two His)						50%	-17,300				9.5 °C			7.5
